From PubChem BioAssay AID2060903 (Molecular Pharmacology Branch, DTP, NCI, 2025)

Test system: 377384-186-R-J1-PDC complex spheroid viability
Assay: Anticancer human tumor 377384-186-R-J1-PDC patient-derived pancreatic carcinoma cell line growth inhibition [RAS]
Settings: for IC50: curve of first compound; for viability, T/C: stronger effect = lower value
Text: RAS pathway inhibitors in Combinations in Complex Spheroids
A high-throughput screen of multi-cell type tumor spheroids was designed to identify active combinations of RAS pathway inhibitors and targeted small molecules. Complex spheroids include a stromal component modeled by human endothelial cells (HUVEC) and fibroblasts modeled by human mesenchymal stem cells (MSCs). The concentration ranges selected for each drug and investigational agent were based upon clinically achievable concentrations if the clinical Cmax of the agent was known.
Compounds. The drugs and investigational agents: abemaciclib (NSC768073), cobimetinib (NSC768068), divarasib (GDC6063, NSC841802), docetaxel (NSC628503), GDC-1971 (RLY-1971, NSC841576), gemcitabine (NSC613327), inavolisib (NSC800729), ipatasertib (NSC767898), KB-0742 (NSC834161), MRTX-1133 (NSC836407), osimertinib (NSC779217), RMC-4630 (NSC839698), RMC-6236 (NSC851965), RMC-6291 (NSC852671), Ro-3306 (NSC812927), sapanisertib (NSC764658), SN-38 (NSC673596), staurosporine (NSC755774), SY5609 (NSC837396), and tovorafenib (DAY101, NSC766906), were obtained from the National Cancer Institute (NCI) Developmental Therapeutics Program Chemical Repository. The FDA-approved anticancer drug set is available from the NCI Developmental Therapeutics Program. […] The stock solutions were prepared in dimethyl sulfoxide (DMSO, Sigma-Aldrich, St. Louis, MO, cat. D2650) at 800-fold the tested concentration and stored at -70 degrees C prior to their use. All drugs and investigational agents were tested over a range starting from a high concentration at or near the clinical Cmax and decreasing in half-log increments. If the clinical Cmax for an agent had not been determined, the highest concentration tested was 10 microM.
Cell Culture. All cells were maintained in an incubator at 37 degrees C and 5% CO2 with 95% humidity. The PDC lines were cultured according to standard operating procedures established by the NCI PDMR. All PDCs were thawed and cultured in Matrigel-coated flasks prepared with a working solution of 1X Ham's F-12 nutrient mix, without supplementation (Invitrogen, Waltham, MA, cat. 11765054), 100 U/mL penicillin-streptomycin (Invitrogen, cat. 15140122), and 2.5% Matrigel (Corning Inc., Corning, NY, cat. 354248) for the first three passages. The 362531-283-R-J2-PDC and 782815-120-R-J1-PDC lines were cultured in 6C/Colon 1B media, which includes advanced DMEM/F-12 (Thermo Fisher Scientific, cat. 12634028), 10 mM HEPES (Thermo Fisher Scientific, cat. 15630080), 1X GlutaMAX supplement (Thermo Fisher Scientific, cat. 35050061), 0.1 mg/mL primocin (InvivoGen, San Diego, CA, cat. ant-pm-2), 10% defined fetal bovine serum, heat inactivated (HyClone Laboratories Inc., Logan, UT, cat. SH30070.03HI), 50% L-WRN conditioned media (ATCC, cat. CRL-3276), 1.25 mM N-Acetyl-L-cysteine (Sigma-Aldrich, cat. A9165), 10 mM nicotinamide (Sigma-Aldrich, cat. N0636), 1X B-27 supplement (Thermo Fisher Scientific, cat. 17504044), 1X N-2 supplement (Thermo Fisher Scientific, cat. 17502048), 50 ng/mL human EGF (Thermo Fisher Scientific, cat. PHG0311), and 10 microM Y-27632 dihydrochloride (Tocris Bioscience, cat. 1254). The K12877-001-R-J1-PDC line was cultured in 6I media, which includes all 6C/Colon 1B media plus 10 ng/mL human FGF-10 (PeproTech, cat. 100-26), 1 ng/mL human FGF-2 (PeproTech, cat. 100-18B), 1 µM prostaglandin E2 (Tocris Bioscience, cat. 2296), […] hydrocortisone (Sigma-Aldrich, cat. H4001), and […] bovine insulin (Sigma-Aldrich, cat. I6634). The K86415-001-R-J1-PDC line was cultured in 6D media, which includes all 6C/Colon 1B media components minus the L-WRN conditioned media. The 485176-168-R4-J1-PDC was cultured in PANC media, which includes all 6C/Colon 1B media plus 100 ng/mL human FGF-10 (PeproTech, cat. 100-26), 500 nM SB-431542 (Selleckchem, cat. S1067), and 10 nM gastrin (Tocris Bioscience, cat. 3006). […]

[1] = second compound 0.0316 µM, first compound 0.0316 µM
[2] = second compound 0.0316 µM, first compound 0.1 µM
[3] = second compound 0.0316 µM, first compound 0.316 µM
[4] = second compound 0.0316 µM, first compound 1 µM
[5] = second compound 0.1 µM, first compound 0.0316 µM
[6] = second compound 0.1 µM, first compound 0.1 µM
[7] = second compound 0.1 µM, first compound 0.316 µM
[8] = second compound 0.1 µM, first compound 1 µM
[9] = second compound 0.316 µM, first compound 0.0316 µM
[10] = second compound 0.316 µM, first compound 0.1 µM
[11] = second compound 0.316 µM, first compound 0.316 µM
[12] = second compound 0.316 µM, first compound 1 µM
[13] = second compound 1 µM, first compound 0.0316 µM
[14] = second compound 1 µM, first compound 0.1 µM
[15] = second compound 1 µM, first compound 0.316 µM
[16] = second compound 1 µM, first compound 1 µM
[17] = second compound 3.16 µM, first compound 0.0316 µM
[18] = second compound 3.16 µM, first compound 0.1 µM
[19] = second compound 3.16 µM, first compound 0.316 µM
[20] = second compound 3.16 µM, first compound 1 µM
[21] = second compound 10 µM, first compound 0.0316 µM
[22] = second compound 10 µM, first compound 0.1 µM
[23] = second compound 10 µM, first compound 0.316 µM
[24] = second compound 10 µM, first compound 1 µM
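Further: spheroids exposed to compounds for seven days before readout.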

## CC(Nc1ccc2c(c1)OCCn1cc(N3C(=O)OCC3C(F)F)nc1-2)C(N)=O (centres undefined) + C#Cc1c(F)ccc2cc(O)cc(-c3ncc4c(N5CC6CCC(C5)N6)nc(OCC56CCCN5CC(F)C6)nc4c3F)c12
Second compound 0.0316 µM
  IC50: < 31.6 nM
Second compound 0.1 µM
  IC50: < 31.6 nM
Second compound 0.316 µM
  IC50: < 31.6 nM
Second compound 1 µM
  IC50: < 31.6 nM
Second compound 3.16 µM
  IC50: < 31.6 nM
Second compound 10 µM
  IC50: < 31.6 nM
[1]
  viability, T/C: 15.8%
[2]
  viability, T/C: 14.3%
[3]
  viability, T/C: 7.76%
[4]
  viability, T/C: 6.8%
Second compound 0.0316 µM, first compound 3.16 µM
  viability, T/C: 5.84%
Second compound 0.0316 µM, first compound 10 µM
  viability, T/C: 4.21%
[5]
  viability, T/C: 6.67%
[6]
  viability, T/C: 6.43%
[7]
  viability, T/C: 3.06%
[8]
  viability, T/C: 2.11%
Second compound 0.1 µM, first compound 3.16 µM
  viability, T/C: 1.21%
Second compound 0.1 µM, first compound 10 µM
  viability, T/C: 0.7%
[9]
  viability, T/C: 3.3%
[10]
  viability, T/C: 2.54%
[11]
  viability, T/C: 1.59%
[12]
  viability, T/C: 0.81%
Second compound 0.316 µM, first compound 3.16 µM
  viability, T/C: 0.63%
Second compound 0.316 µM, first compound 10 µM
  viability, T/C: 0.43%
[13]
  viability, T/C: 2.75%
[14]
  viability, T/C: 1.42%
[15]
  viability, T/C: 0.85%
[16]
  viability, T/C: 0.69%
Second compound 1 µM, first compound 3.16 µM
  viability, T/C: 0.44%
Second compound 1 µM, first compound 10 µM
  viability, T/C: 0.27%
[17]
  viability, T/C: 1.42%
[18]
  viability, T/C: 0.91%
[19]
  viability, T/C: 0.56%
[20]
  viability, T/C: 0.32%
Second compound 3.16 µM, first compound 3.16 µM
  viability, T/C: 0.39%
Second compound 3.16 µM, first compound 10 µM
  viability, T/C: 0.32%
[21]
  viability, T/C: 0.95%
[22]
  viability, T/C: 0.23%
[23]
  viability, T/C: 0.14%
[24]
  viability, T/C: 0.17%
Second compound 10 µM, first compound 3.16 µM
  viability, T/C: 0.45%
Second compound 10 µM, first compound 10 µM
  viability, T/C: 0.11%

## O=C(c1ccc(F)c(F)c1Nc1ccc(I)cc1F)N1CC(O)([C@@H]2CCCCN2)C1 + C#Cc1c(F)ccc2cc(O)cc(-c3ncc4c(N5CC6CCC(C5)N6)nc(OCC56CCCN5CC(F)C6)nc4c3F)c12
Second compound 0.0316 µM
  IC50: < 3.16 nM
Second compound 0.1 µM
  IC50: < 3.16 nM
Second compound 0.316 µM
  IC50: < 3.16 nM
Second compound 1 µM
  IC50: < 3.16 nM
Second compound 3.16 µM
  IC50: < 3.16 nM
Second compound 10 µM
  IC50: < 3.16 nM
Second compound 0.0316 µM, first compound 0.00316 µM
  viability, T/C: 19.3%
Second compound 0.0316 µM, first compound 0.01 µM
  viability, T/C: 12%
[1]
  viability, T/C: 5.6%
[2]
  viability, T/C: 2.35%
[3]
  viability, T/C: 0.7%
[4]
  viability, T/C: 0.29%
Second compound 0.1 µM, first compound 0.00316 µM
  viability, T/C: 6.37%
Second compound 0.1 µM, first compound 0.01 µM
  viability, T/C: 4.57%
[5]
  viability, T/C: 2.3%
[6]
  viability, T/C: 1.43%
[7]
  viability, T/C: 0.58%
[8]
  viability, T/C: 0.35%
Second compound 0.316 µM, first compound 0.00316 µM
  viability, T/C: 4.21%
Second compound 0.316 µM, first compound 0.01 µM
  viability, T/C: 2.12%
[9]
  viability, T/C: 1.39%
[10]
  viability, T/C: 0.91%
[11]
  viability, T/C: 0.54%
[12]
  viability, T/C: 0.22%
Second compound 1 µM, first compound 0.00316 µM
  viability, T/C: 1.85%
Second compound 1 µM, first compound 0.01 µM
  viability, T/C: 1.57%
[13]
  viability, T/C: 1.12%
[14]
  viability, T/C: 1.04%
[15]
  viability, T/C: 0.42%
[16]
  viability, T/C: 0.15%
Second compound 3.16 µM, first compound 0.00316 µM
  viability, T/C: 1.79%
Second compound 3.16 µM, first compound 0.01 µM
  viability, T/C: 1.3%
[17]
  viability, T/C: 1.31%
[18]
  viability, T/C: 0.67%
[19]
  viability, T/C: 0.2%
[20]
  viability, T/C: 0.21%
Second compound 10 µM, first compound 0.00316 µM
  viability, T/C: 1.29%
Second compound 10 µM, first compound 0.01 µM
  viability, T/C: 0.68%
[21]
  viability, T/C: 0.68%
[22]
  viability, T/C: 0.65%
[23]
  viability, T/C: 0.38%
[24]
  viability, T/C: 0.17%
